Laboratory results as given in patent publication US5840684A, “Glycopeptide antibiotic derivatives” (Eli Lilly and Company, priority 1995, dated 1998).
≈ marks a conversion by molar mass, not a printed value.

Columns and labels:
[1] = test system: vancomycin-susceptible enterococci; assay: broth micro-dilution, mean geometric MIC; type: cell-based, Enterococcus faecium and Enterococcus faecalis; conditions: enterococci, 24-hour incubation
[2] = test system: Staphylococcus haemolyticus 105; assay: broth micro-dilution MIC; type: cell-based
Experimental: (§1) The formula I compounds have in vitro and in vivo activity against Gram-positive pathogenic bacteria. The MIC's were determined using a standard broth micro-dilution assay.

Entercoccus faecium 2041 = assay: broth micro-dilution MIC; type: cell-based; conditions: Entercoccus faecium 2041
Experimental: as §1

[3] = test system: Staphylococcus haemolyticus 415; assay: broth micro-dilution MIC; type: cell-based
Experimental: as §1

[4] = test system: Streptococcus pneumoniae P1; assay: broth micro-dilution MIC; type: cell-based
Experimental: as §1

Entercoccus faecium 180 = assay: broth micro-dilution MIC; type: cell-based; conditions: Entercoccus faecium 180
Experimental: as §1

[5] = test system: Staphylococcus epidermidis 270; assay: broth micro-dilution MIC; type: cell-based
Experimental: as §1

[6] = test system: Enterococcus gallinarum 245; assay: broth micro-dilution MIC; type: cell-based; conditions: Enterococcus gallinarum 245
Experimental: as §1

[7] = test system: Staphylococcus aureus 446; assay: broth micro-dilution MIC; type: cell-based
Experimental: (§2) The MIC's were determined using a standard broth micro-dilution assay.

[8] = test system: Entercoccus faecium 180-1; assay: broth micro-dilution MIC; type: cell-based
Experimental: as §2

[9] = test system: Staphylococcus aureus 491; assay: broth micro-dilution MIC; type: cell-based
Experimental: as §2

[10] = test system: Staphylococcus aureus 447; assay: broth micro-dilution MIC; type: cell-based
Experimental: as §2

[11] = test system: Staphylococcus aureus SA1199A; assay: broth micro-dilution MIC; type: cell-based
Experimental: as §2

Entercoccus faecium 276 = assay: broth micro-dilution MIC; type: cell-based
Experimental: as §2

[12] = test system: Streptococcus pyogenes C203; assay: broth micro-dilution MIC; type: cell-based
Experimental: as §2

[13] = test system: Staphylococcus aureus X778; assay: broth micro-dilution MIC; type: cell-based
Experimental: as §2

[14] = test system: Staphylococcus aureus S13E; type: cell-based
Experimental: as §2

[15] = test system: Staphylococcus aureus SA1199B; type: cell-based
Experimental: as §2

[16] = test system: vancomycin-resistant enterococci; assay: broth micro-dilution, mean geometric MIC; type: cell-based, Enterococcus faecium and Enterococcus faecalis; conditions: enterococci, 24-hour incubation
[17] = test system: Staphylococcus aureus X400; assay: broth micro-dilution MIC; type: cell-based
Experimental: as §2

[18] = test system: Staphylococcus aureus SA1199; assay: broth micro-dilution MIC; type: cell-based
Experimental: as §2

Compound | mean geometric MIC, Vancomycin Sensitive Strains [1] [µg/mL] | MIC [2] [µg/mL] | MIC (Entercoccus faecium 2041) [µg/mL] | MIC [3] [µg/mL] | MIC [4] [µg/mL] | MIC (Entercoccus faecium 180) [µg/mL] | MIC [5] [µg/mL] | MIC [6] [µg/mL] | MIC [7] [µg/mL] | MIC [8] [µg/mL] | MIC [9] [µg/mL] | MIC [10] [µg/mL] | MIC [11] [µg/mL] | MIC (Entercoccus faecium 276) [µg/mL] | MIC [12] [µg/mL] | MIC [13] [µg/mL] | MIC [14] [µg/mL] | MIC [15] [µg/mL] | mean geometric MIC, Vancomycin Resistant Strains [16] [µg/mL] | MIC [18] [µg/mL] | other results
CNC(CC(C)C)C(=O)NC1C(=O)NC(CC(N)=O)C(=O)NC2C(=O)NC3C(=O)NC(C(=O)NC(C(=O)O)c4cc(O)cc(O)c4-c4cc3ccc4O)C(OC3CC(C)(N)C(O)C(C)O3)c3ccc(c(Cl)c3)Oc3cc2cc(c3OC2OC(CO)C(O)C(O)C2OC2CC(C)(NCc3ccc4c(c3)CCO4)C(O)C(C)O2)Oc2ccc(cc2Cl)C1O (stereo not shown) [Compound 82] | 0.50 | 8 (≈ 4.64 µM) | 0.5 (≈ 0.29 µM) | 8 (≈ 4.64 µM) | ≤ 0.06 | 2 (≈ 1.16 µM) | 4 (≈ 2.32 µM) | 0.125 (≈ 0.0725 µM) | 2 (≈ 1.16 µM) | 0.125 (≈ 0.0725 µM) | 1 (≈ 0.58 µM) | 4 (≈ 2.32 µM) | 0.5 (≈ 0.29 µM) | ≤ 0.06 | ≤ 0.06 | 0.5 (≈ 0.29 µM) | ≤ 0.06 | 1 (≈ 0.58 µM) | 22 |  | 
CNC(CC(C)C)C(=O)NC1C(=O)NC(CC(N)=O)C(=O)NC2C(=O)NC3C(=O)NC(C(=O)NC(C(=O)O)c4cc(O)cc(O)c4-c4cc3ccc4O)C(OC3CC(C)(N)C(O)C(C)O3)c3ccc(c(Cl)c3)Oc3cc2cc(c3OC2OC(CO)C(O)C(O)C2OC2CC(C)(NCc3ccc(NC(=O)c4ccc(F)cc4)cc3)C(O)C(C)O2)Oc2ccc(cc2Cl)C1O (stereo not shown) [Compound 193] | 0.072 | 0.5 (≈ 0.275 µM) | ≤ 0.06 | 1 (≈ 0.55 µM) | ≤ 0.06 | ≤ 0.06 |  | 1 (≈ 0.55 µM) | 0.5 (≈ 0.275 µM) | ≤ 0.06 | ≤ 0.06 | ≤ 0.06 | ≤ 0.06 | ≤ 0.06 | ≤ 0.06 | ≤ 0.06 | ≤ 0.06 |  | 2 |  | 
CNC(CC(C)C)C(=O)NC1C(=O)NC(CC(N)=O)C(=O)NC2C(=O)NC3C(=O)NC(C(=O)NC(C(=O)O)c4cc(O)cc(O)c4-c4cc3ccc4O)C(OC3CC(C)(N)C(O)C(C)O3)c3ccc(c(Cl)c3)Oc3cc2cc(c3OC2OC(CO)C(O)C(O)C2OC2CC(C)(NCc3ccc([S+]([O-])c4ccccc4)cc3)C(O)C(C)O2)Oc2ccc(cc2Cl)C1O (stereo not shown) [Compound 159] | 0.50 | 16 (≈ 8.86 µM) |  | 8 (≈ 4.43 µM) | ≤ 0.06 | 2 (≈ 1.11 µM) | 0.5 (≈ 0.277 µM) | 8 (≈ 4.43 µM) | 0.5 (≈ 0.277 µM) | ≤ 0.06 | 2 (≈ 1.11 µM) | 4 (≈ 2.21 µM) | ≤ 0.06 |  | ≤ 0.06 | 2 (≈ 1.11 µM) | 1 (≈ 0.553 µM) | ≤ 0.06 | 27 |  | MIC [17]: 4 µg/mL (≈ 2.21 µM)
CNC(CC(C)C)C(=O)NC1C(=O)NC(CC(N)=O)C(=O)NC2C(=O)NC3C(=O)NC(C(=O)NC(C(=O)O)c4cc(O)cc(O)c4-c4cc3ccc4O)C(OC3CC(C)(N)C(O)C(C)O3)c3ccc(c(Cl)c3)Oc3cc2cc(c3OC2OC(CO)C(O)C(O)C2OC2CC(C)(NCc3ccc4c(c3)CCCC4)C(O)C(C)O2)Oc2ccc(cc2Cl)C1O (stereo not shown) [Compound 168] | 0.10 | 0.5 (≈ 0.288 µM) | ≤ 0.06 | 2 (≈ 1.15 µM) | ≤ 0.06 | 0.25 (≈ 0.144 µM) |  | 2 (≈ 1.15 µM) | ≤ 0.06 | ≤ 0.06 | 0.5 (≈ 0.288 µM) | ≤ 0.06 | ≤ 0.06 |  | ≤ 0.06 | 0.5 (≈ 0.288 µM) | ≤ 0.06 | 1 (≈ 0.576 µM) | 3.4 | 0.5 (≈ 0.288 µM) | MIC [17]: ≤ 0.06 µg/mL
CNC(CC(C)C)C(=O)NC1C(=O)NC(CC(N)=O)C(=O)NC2C(=O)NC3C(=O)NC(C(=O)NC(C(=O)O)c4cc(O)cc(O)c4-c4cc3ccc4O)C(OC3CC(C)(N)C(O)C(C)O3)c3ccc(c(Cl)c3)Oc3cc2cc(c3OC2OC(CO)C(O)C(O)C2OC2CC(C)(NCc3ccc(N4CCOCC4)cc3)C(O)C(C)O2)Oc2ccc(cc2Cl)C1O (stereo not shown) [Compound 147] | 1.3 | 1 (≈ 0.566 µM) | ≤ 0.06 | 8 (≈ 4.53 µM) | ≤ 0.06 | 2 (≈ 1.13 µM) |  |  | 0.5 (≈ 0.283 µM) | 2 (≈ 1.13 µM) | ≤ 0.06 |  | ≤ 0.06 |  | ≤ 0.06 |  | 1 (≈ 0.566 µM) | ≤ 0.06 |  | 0.5 (≈ 0.283 µM) | MIC [17]: 4 µg/mL (≈ 2.26 µM)
CNC(CC(C)C)C(=O)NC1C(=O)NC(CC(N)=O)C(=O)NC2C(=O)NC3C(=O)NC(C(=O)NC(C(=O)O)c4cc(O)cc(O)c4-c4cc3ccc4O)C(OC3CC(C)(N)C(O)C(C)O3)c3ccc(c(Cl)c3)Oc3cc2cc(c3OC2OC(CO)C(O)C(O)C2OC2CC(C)(NCC34CC5CC(CC(C5)C3)C4)C(O)C(C)O2)Oc2ccc(cc2Cl)C1O (stereo not shown) [Compound 141] |  | 1 (≈ 0.574 µM) | ≤ 0.06 | 4 (≈ 2.3 µM) | ≤ 0.06 | 0.5 (≈ 0.287 µM) | 1 (≈ 0.574 µM) | 4 (≈ 2.3 µM) | 2 (≈ 1.15 µM) | ≤ 0.06 | 0.5 (≈ 0.287 µM) | 1 (≈ 0.574 µM) | ≤ 0.06 | 0.5 (≈ 0.287 µM) | ≤ 0.06 | 0.5 (≈ 0.287 µM) |  | 2 (≈ 1.15 µM) | 8.0 |  | 
CNC(CC(C)C)C(=O)NC1C(=O)NC(CC(N)=O)C(=O)NC2C(=O)NC3C(=O)NC(C(=O)NC(C(=O)O)c4cc(O)cc(O)c4-c4cc3ccc4O)C(OC3CC(C)(N)C(O)C(C)O3)c3ccc(c(Cl)c3)Oc3cc2cc(c3OC2OC(CO)C(O)C(O)C2OC2CC(C)(NCCc3cccc(OCc4ccccc4)c3)C(O)C(C)O2)Oc2ccc(cc2Cl)C1O (stereo not shown) [Compound 69] | 0.44 | 4 (≈ 2.22 µM) |  | 8 (≈ 4.44 µM) |  | 4 (≈ 2.22 µM) | 2 (≈ 1.11 µM) | 8 (≈ 4.44 µM) | 1 (≈ 0.555 µM) | ≤ 0.06 | 1 (≈ 0.555 µM) | 1 (≈ 0.555 µM) | ≤ 0.06 | 0.5 (≈ 0.277 µM) |  |  |  | 2 (≈ 1.11 µM) | 13 | 1 (≈ 0.555 µM) | MIC [17]: 0.5 µg/mL (≈ 0.277 µM)
CNC(CC(C)C)C(=O)NC1C(=O)NC(CC(N)=O)C(=O)NC2C(=O)NC3C(=O)NC(C(=O)NC(C(=O)O)c4cc(O)cc(O)c4-c4cc3ccc4O)C(OC3CC(C)(N)C(O)C(C)O3)c3ccc(c(Cl)c3)Oc3cc2cc(c3OC2OC(CO)C(O)C(O)C2OC2CC(C)(NCc3cc(C)cc(C)c3)C(O)C(C)O2)Oc2ccc(cc2Cl)C1O (stereo not shown) [Compound 89] | 0.44 | 1 (≈ 0.585 µM) | ≤ 0.06 | 2 (≈ 1.17 µM) | ≤ 0.06 | 0.125 (≈ 0.0731 µM) | 1 (≈ 0.585 µM) | ≤ 0.06 | 0.5 (≈ 0.292 µM) | ≤ 0.06 | 1 (≈ 0.585 µM) | 1 (≈ 0.585 µM) | ≤ 0.06 | ≤ 0.06 | ≤ 0.06 |  |  | 1 (≈ 0.585 µM) | 11 | 0.5 (≈ 0.292 µM) | 
CNC(CC(C)C)C(=O)NC1C(=O)NC(CC(N)=O)C(=O)NC2C(=O)NC3C(=O)NC(C(=O)NC(C(=O)O)c4cc(O)cc(O)c4-c4cc3ccc4O)C(OC3CC(C)(N)C(O)C(C)O3)c3ccc(c(Cl)c3)Oc3cc2cc(c3OC2OC(CO)C(O)C(O)C2OC2CC(C)(NCc3ccc(OC(C)=O)c(OC)c3)C(O)C(C)O2)Oc2ccc(cc2Cl)C1O (stereo not shown) [Compound 99] | 0.76 | 8 (≈ 4.52 µM) |  | 32 (≈ 18.1 µM) |  |  | 1 (≈ 0.565 µM) | 32 (≈ 18.1 µM) | 0.5 (≈ 0.282 µM) | ≤ 0.06 | 1 (≈ 0.565 µM) | 2 (≈ 1.13 µM) | 0.5 (≈ 0.282 µM) |  |  | 0.5 (≈ 0.282 µM) | 0.5 (≈ 0.282 µM) | 0.5 (≈ 0.282 µM) | 72 | 0.5 (≈ 0.282 µM) | 
